In patent US20250290142A1, “DETECTING OXIDATIVE STRESS IN CELL(S) USING EPIGENETIC MEANS” (Evonik Operations GmbH, priority 2022, published 2025):

Test system: T-Skin models (reconstructed human skin)
Conditions: maintained 24 hrs
Experimental: T-Skin models were obtained from Episkin SA, France which is composed of reconstructed human skin. Each skin model consists of a dermal equivalent overlaid by a stratified, well-differentiated epidermis derived from normal human keratinocytes. Upon receiving the skin models, it was recovered by incubating in T-Skin culture medium overnight at 37° C. in a 5% CO2 incubator.
The genomic DNA (500 ng) from tissue samples were subjected to bisulfite conversion using the EZ DNA Methylation-Gold™ Kit (Zymo Research). The methylation levels were quantified using Infinium MethylationEPIC v2.0 Kit (Illumina) which can analyze over 850,000 methylation sites quantitatively across the genome at single-nucleotide resolution.
Quality check on samples was performed to keep probes that have a detection P-value <0.01 in one or more samples or have a mean detection P-value <0.05 in all samples. […]
Prior to differential methylation analysis, the probes with non-specific binding, cross reactive probes, probes affected by common SNPs, and probes annotated to the X, Y chromosomes were also filtered out. Beta-value and M-value of normalized and filtered samples were calculated using getBeta and getM function respectively, the samples were then subjected to further downstream analysis. […]

## OO [H2O2, Hydrogen peroxide]
High H2O2 (200 μM) for 2 hrs
  methylation status of probes vs cells without OS (FIG. 4A): large number of probes that are hypomethylated
Low H2O2 (100 μM) for 2 hrs
  methylation status of probes vs cells without OS (FIG. 3A): large number of probes that are hypomethylated
